In ChEMBL document CHEMBL4342507, “Targeting YAP Degradation by a Novel 1,2,4-Oxadiazole Derivative via Restoration of the Function of the Hippo Pathway” (ACS Med Chem Lett, 2020):
The source made the active and inactive calls.

Experiments:
[1] = target: T1, Serine/threonine-protein kinase LATS1 (Homo sapiens) (UniProt O95835); assay: Activation of LATS1 in human SUM159 cells assessed as increase in phosphorylation at Ser909 residue measured after 12 hrs by Western blot analysis; type: cell-based
T1 sequence (whole entry): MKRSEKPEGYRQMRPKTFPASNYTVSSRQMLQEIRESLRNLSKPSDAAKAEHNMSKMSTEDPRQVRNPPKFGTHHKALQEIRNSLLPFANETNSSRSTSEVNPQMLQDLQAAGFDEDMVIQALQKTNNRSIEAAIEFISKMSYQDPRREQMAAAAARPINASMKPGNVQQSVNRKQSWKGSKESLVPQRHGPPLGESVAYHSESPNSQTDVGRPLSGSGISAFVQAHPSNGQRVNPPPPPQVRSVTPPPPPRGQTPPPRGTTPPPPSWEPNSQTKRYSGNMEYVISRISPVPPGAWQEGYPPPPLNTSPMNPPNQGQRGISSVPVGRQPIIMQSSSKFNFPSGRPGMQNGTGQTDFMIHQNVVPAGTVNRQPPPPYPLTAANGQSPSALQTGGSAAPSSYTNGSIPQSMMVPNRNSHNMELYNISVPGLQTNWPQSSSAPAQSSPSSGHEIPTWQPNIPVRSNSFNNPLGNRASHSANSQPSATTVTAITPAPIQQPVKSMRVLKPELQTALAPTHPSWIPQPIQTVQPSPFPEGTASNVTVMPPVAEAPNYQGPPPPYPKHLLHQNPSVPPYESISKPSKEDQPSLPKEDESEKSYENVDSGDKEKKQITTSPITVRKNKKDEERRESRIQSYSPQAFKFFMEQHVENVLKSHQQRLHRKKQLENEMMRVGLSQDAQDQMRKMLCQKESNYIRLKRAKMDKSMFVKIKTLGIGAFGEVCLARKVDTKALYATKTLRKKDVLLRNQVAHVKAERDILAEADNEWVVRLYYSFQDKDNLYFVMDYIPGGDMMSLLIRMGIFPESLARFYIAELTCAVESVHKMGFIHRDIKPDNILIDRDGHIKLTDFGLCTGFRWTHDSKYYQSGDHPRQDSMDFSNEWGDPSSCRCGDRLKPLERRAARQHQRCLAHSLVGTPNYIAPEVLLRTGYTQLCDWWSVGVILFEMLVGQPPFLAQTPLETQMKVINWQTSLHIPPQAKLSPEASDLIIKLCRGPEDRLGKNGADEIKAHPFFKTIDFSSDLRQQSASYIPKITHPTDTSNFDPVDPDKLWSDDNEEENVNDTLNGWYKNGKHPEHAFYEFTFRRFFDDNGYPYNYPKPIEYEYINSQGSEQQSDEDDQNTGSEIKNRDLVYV

[2] = tested on: PC-3; assay: Effect on MOB expression in human PC3 cells at 0.25 to 1.5 uM measured after 24 hrs by Western blot analysis; type: functional, cell-based
[3] = tested on: MDA-MB-231; assay: Cytostatic activity against human MDA-MB-231 cells assessed as cell viability at concentration of greater than IC50 measured up to 72 hrs by MTT assay; type: functional, cell-based
[4] = target: T1, Serine/threonine-protein kinase LATS1 (Homo sapiens); assay: Activation of LATS1 in human PC3 cells assessed as increase in phosphorylation at Thr1079 residue measured after 24 hrs by Western blot analysis; type: cell-based
[5] = target: T1, Serine/threonine-protein kinase LATS1 (Homo sapiens); assay: Activation of LATS1 in human MDA-MB-231 cells assessed as increase in YAP phosphorylation at Ser397 at 0.25 to 1.5 uM measured after 24 to 48 hrs by immunoblotting analysis; type: cell-based
[6] = tested on: MDA-MB-231; assay: Cytotoxicity against human MDA-MB-231 cells ectopically overexpressed with wild type FLAG-tagged YAP assessed as reduction in cell viability at 0.2 to 1.2 uM measured after 72 hrs by MTT assay; type: functional, cell-based
[7] = tested on: MDA-MB-231; assay: Effect on MST2 expression in human MDA-MB-231 cells at 0.25 to 1.5 uM measured after 24 hrs by Western blot analysis; type: functional, cell-based
[8] = tested on: SUM-159-PT; assay: Cytostatic activity against human SUM159 cells assessed as cell viability at concentration of greater than IC50 measured up to 72 hrs by MTT assay; type: functional, cell-based
[9] = species: Homo sapiens; assay: Activation of MOB in human PC3 cells assessed as phosphorylation at Thr35 residue at 0.25 to 1.25 uM measured after 24 hrs by Western blot analysis; type: cell-based
[10] = tested on: MCF7; assay: Cytotoxicity against human MCF7 cells assessed as reduction in cell viability measured after 72 hrs by MTT assay; type: functional, cell-based; settings: MCF7, 72 h
[11] = target: T1, Serine/threonine-protein kinase LATS1 (Homo sapiens); assay: Activation of LATS1 in human SUM159 cells assessed as increase in phosphorylation at Thr1079 residue measured after 12 hrs by Western blot analysis; type: cell-based
[12] = species: Homo sapiens; assay: Activation of MOB in human SUM159 cells assessed as phosphorylation at Thr35 residue at 0.25 to 1.25 uM measured after 12 hrs by Western blot analysis; type: cell-based
[13] = tested on: PC-9; assay: Cytotoxicity against human PC9 cells assessed as reduction in cell viability measured after 72 hrs by MTT assay; type: functional, cell-based
[14] = tested on: MDA-MB-231; assay: Effect on MST1 expression in human MDA-MB-231 cells at 0.25 to 1.5 uM measured after 24 hrs by Western blot analysis; type: functional, cell-based
[15] = Acute toxicity in athymic Nude-Foxn1nu BALB/c mouse xenografted with human MDA-MB-231 cells assessed as effect on serum albumin level at 200 mg/kg, po administered once daily via gavage for 14 days; type: organism-based; settings: in vivo, 336 h
[16] = tested on: SUM-159-PT; assay: Effect on MOB expression in human SUM159 cells at 0.25 to 1.5 uM measured after 12 hrs by Western blot analysis; type: functional, cell-based
[17] = Acute toxicity in athymic Nude-Foxn1nu BALB/c mouse xenografted with human MDA-MB-231 cells assessed as effect on serum creatinine level at 200 mg/kg, po administered once daily via gavage for 14 days; type: organism-based; settings: in vivo, 336 h
[18] = tested on: SUM-159-PT; assay: Cytotoxicity against human SUM159 cells assessed as reduction in cell viability measured after 72 hrs by MTT assay; type: functional, cell-based
[19] = target: T1, Serine/threonine-protein kinase LATS1 (Homo sapiens); assay: Activation of LATS1 in triple-negative human SUM159 cells transfected with YAP/TAZ-TEAD reporter plasmid containing 8xGTIIC binding site and cotransfected with pCMV-Luc assessed as suppression of YAP/TAZ luciferase activity measured after 12 hrs by dual luciferase reporter assay
[20] = tested on: SUM-159-PT; assay: Effect on MST1 expression in human SUM159 cells at 0.25 to 1.5 uM measured after 12 hrs by Western blot analysis; type: functional, cell-based
[21] = target: T1, Serine/threonine-protein kinase LATS1 (Homo sapiens); assay: Activation of LATS1 in human PC9 cells assessed as increase in YAP phosphorylation at Ser397 at 0.25 to 1.5 uM measured after 12 to 24 hrs by immunoblotting analysis; type: cell-based
[22] = target: T1, Serine/threonine-protein kinase LATS1 (Homo sapiens); assay: Activation of LATS1 in human PC3 cells assessed as induction of YAP degradation by measuring suppression of YAP protein expression at 0.25 to 1.5 uM measured after 12 to 24 hrs by immunoblotting analysis; type: cell-based
[23] = target: Epidermal growth factor receptor (Homo sapiens) (UniProt P00533); assay: Induction of EGFR degradation in human MDA-MB-231 cells assessed as suppression of EGFR expression at 0.1 to 0.8 uM by Western blot analysis; type: cell-based
Chain of Epidermal growth factor receptor (Homo sapiens) (P00533 whole entry): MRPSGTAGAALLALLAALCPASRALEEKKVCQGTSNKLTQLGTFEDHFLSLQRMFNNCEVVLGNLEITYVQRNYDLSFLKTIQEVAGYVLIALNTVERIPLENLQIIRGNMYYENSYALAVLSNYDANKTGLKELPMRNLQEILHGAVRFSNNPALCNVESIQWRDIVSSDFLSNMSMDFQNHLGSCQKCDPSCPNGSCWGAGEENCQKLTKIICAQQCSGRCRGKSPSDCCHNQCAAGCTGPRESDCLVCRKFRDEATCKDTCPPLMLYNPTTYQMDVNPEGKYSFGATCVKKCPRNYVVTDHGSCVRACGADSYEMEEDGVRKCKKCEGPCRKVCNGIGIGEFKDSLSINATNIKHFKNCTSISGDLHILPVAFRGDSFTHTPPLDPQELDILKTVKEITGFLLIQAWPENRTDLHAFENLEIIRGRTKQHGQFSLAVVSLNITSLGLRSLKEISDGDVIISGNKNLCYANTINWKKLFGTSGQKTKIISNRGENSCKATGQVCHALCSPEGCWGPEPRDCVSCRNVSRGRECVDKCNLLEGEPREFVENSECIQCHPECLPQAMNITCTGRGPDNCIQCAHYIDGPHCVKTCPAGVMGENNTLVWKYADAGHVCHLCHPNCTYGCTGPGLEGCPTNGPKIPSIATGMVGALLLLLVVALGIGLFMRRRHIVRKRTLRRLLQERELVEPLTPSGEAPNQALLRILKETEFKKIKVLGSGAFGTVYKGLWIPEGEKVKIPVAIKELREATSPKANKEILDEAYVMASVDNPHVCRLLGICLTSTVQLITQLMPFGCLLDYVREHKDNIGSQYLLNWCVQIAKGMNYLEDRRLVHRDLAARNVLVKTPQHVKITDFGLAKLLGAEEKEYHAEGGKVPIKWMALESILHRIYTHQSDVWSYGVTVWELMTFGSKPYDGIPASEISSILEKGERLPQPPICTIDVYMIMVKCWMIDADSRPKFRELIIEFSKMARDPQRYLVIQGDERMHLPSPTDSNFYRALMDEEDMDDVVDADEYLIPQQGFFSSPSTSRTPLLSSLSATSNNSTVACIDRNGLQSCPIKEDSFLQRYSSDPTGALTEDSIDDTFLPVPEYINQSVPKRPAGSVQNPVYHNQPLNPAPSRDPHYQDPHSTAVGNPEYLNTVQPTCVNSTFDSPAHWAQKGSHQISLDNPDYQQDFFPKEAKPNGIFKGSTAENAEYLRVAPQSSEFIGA

CC(=O)Nc1ccc(NC(=O)Nc2cccc(-c3nc(-c4ccc(NC(=O)c5cccnc5)cc4Cl)no3)c2)cc1C(F)(F)F
inactive: Activity [2] | Activity [5] | Activity [6] | Activity [7] | Activity [9] | Activity [12] | Activity [14] | Activity [16] | Activity [20] | Activity [23]
Non-Toxic: Activity [15] | Activity [17]
active: Activity [1] Dose-dependent effect | Activity [3] | Activity [4] Dose-dependent effect | Activity [8] | Activity [11] Dose-dependent effect | Activity [13] Dose-dependent effect | Activity [18] Dose-dependent effect | Activity [19] Dose-dependent effect | Activity [21] | Activity [22]
> 1200 nM: IC50 [10]
400 to 800 nM: IC50 ([13]; PC-9, 72 h) | IC50 [18]
